Test results taken from US20060183773A1, “Uses of methylphenidate derivatives” (priority 2005, published 2006).

Tests used:
Format in all cases: cell-based, human
TCR-positive cells = experiment: Annexin staining of TCR-positive PBL, flow cytometry (cell death); settings: PHA 5 μg/ml plus 10 μM dexamethasone; printed as decreased from 84%
Experimental: After this incubation, PHA was added to give a final concentration of 5 μg/ml, and the cells were incubated for an additional 72 hours at 37° C., 5% CO2. All cultures were performed in triplicate. Cells were then removed by centrifugation at 1000 rpm for 10 minutes.
The cells were further analyzed by flow cytometry. Annexin was used to determine populations of dead or dying cells. Anti-CD69 antibody was used to establish the level of cellular activation. Antibody to T-cell receptor αβ (TCR) was also used. Recombinant Annexin 5 (PE and FITC conjugates) and the antibodies were all purchase from Caltag (Burlingham, Calif.) and used following the manufacturer's recommendations.

IL-8 [1] = experiment: IL-8 release from LPS-stimulated THP-1 monocytes, ELISA; settings: THP-1, LPS 200 ng/ml, Cpd II 15 μg/ml, Dex 10 μM
Experimental: (§1) THP-1 is a monocyte cell line obtained from American Type Culture Collection (ATCC) (catalog no. TIB-202). […] After 1 hour, lipopolysaccharide (LPS) (obtained from Sigma) was added to the cultures to give a final concentration of 200 ng/ml, and the cells were then incubated for an additional 4 hours or for an additional 24 hours. After the incubation, the cells were centrifuged, and the supernatants were collected. The concentrations of IL-8 and TNFα in the supernatants were determined by ELISA.
The concentrations of IL-8 in the supernatants were determined by ELISA performed as described in Example 4.

TNFα = TNFα release from LPS-stimulated THP-1 monocytes, ELISA; settings: THP-1, LPS 200 ng/ml, 24 hours; Cpd II 15 μg/ml, Dex 10 μM; LPS alone 138.655
Experimental: as §1
The TNFα ELISA was performed as described in Example 2.

NFκB [2] = experiment: Activated NFκB in VEGF-treated HUVECs, TransAM assay; settings: VEGF 10 ng/ml + 10 μM, control 0.070, VEGF only 0.111
Experimental: Passage 5 HUVECs, human source lot number 8750 (obtained from ATCC), were grown to confluence in 25 cm^2 flasks in EGM-2 medium. The following additives were added to the flasks (total volume of 5 ml/flask) in EGM-2 medium containing 2% FCS, GA1000 (gentamycin), heparin and ascorbic acid (all from Cambrex): 1 μg/ml of the compound of formula II (Cpd II); 5 μg/ml Cpd II; 15 μg/ml of Cpd II; 15 μg/ml methylphenidate (MP); or 10 μM LY 294002. The flasks were incubated overnight at 37° C., 5% CO2 After this incubation, vascular endothelial growth factor (VEGF) (obtained from Sigma) was added to give a final concentration 10 ng/ml, and the flasks were incubated for an additional 30 minutes.
(§2) Then, the amount of NFκB was determined using a TransAM™ NFκB p65/NFκB p50 Transcription Factor Assay Kit and a Nuclear Extract Kit from Active Motif North America, Carlsbad, Calif., according to the manufacturer's instructions. Briefly, a nuclear extract of the cells was prepared using the Nuclear Extract Kit. Then, the nuclear extract was added to the wells of the 96-well plate of the TransAM™ kit. Oligonucleotide containing an NFκB consensus binding site was immobilized in the wells, and the activated NFκB contained in the nuclear extract was bound to the oligonucleotide. Then, an antibody directed against the NFκB p65 or p50 subunit was added, and the NFκB complex bound to the oligonucleotide was detected. A secondary antibody conjugated to horseradish peroxidase (HRP) was next added to provide a colorimetric readout that was quantified by spectrophotometry (measurement at 450 nm).

IL-8 [3] = experiment: IL-8 release by TNFα-stimulated HUVECs, ELISA; settings: 10 ng/ml TNFα + 10 μM; 18 hours; TNFα + water 35572
Experimental: Passage 4 HUVECs, human source lot number 8710 (obtained from ATCC), were put into the wells of a 24-well tissue culture plate at 5,000 cells/well in EGM-2 medium (obtained from Cambrex) and cultured for 72 hours at 37° C. and 5% CO2. […] After incubation for 1 hour at 37° C. and 5% CO2, TNFα (obtained from Pierce) was added to give a final concentration of 10 ng/ml, and the cells were incubated for an additional 18 hours at 37° C. and 5% CO2. After this incubation, the supernatants were collected, and the amount of IL-8 in the supernatants determined by ELISA as described in Example 4.

c-Jun = c-Jun in VEGF-treated HUVECs, TransAM AP-1 assay; settings: VEGF 10 ng/ml + 10 μM, control 0.204, VEGF only 0.261
Experimental: The flasks were incubated overnight at 37° C., 5% CO2 After this incubation, vascular endothelial growth factor (VEGF) (obtained from Sigma) was added to give a final concentration 10 ng/ml, and the flasks were incubated for an additional 30 minutes.
The amount of c-Jun was determined using a TransAM™ AP-1 Family Transcription Factor Assay Kit and a Nuclear Extract Kit from Active Motif North America, Carlsbad, Calif., according to manufacturer's instructions. Briefly, a nuclear extract of the cells was prepared using the Nuclear Extract Kit. Then, the nuclear extract was added to the wells of a 96-well plate in which oligonucleotide containing a TPA-responsive element (TRE) was immobilized. Activator protein-1 (AP-1) dimers contained in the nuclear extract were bound to this oligonucleotide and were detected using an antibody specific for c-Jun. A secondary antibody conjugated to horseradish peroxidase (HRP) was next added to provide a colorimetric readout that was quantified by spectrophotometry (measurement at 450 nm).

NFκB [4] = experiment: Activated NFκB in TNFα- or VEGF-treated HIAECs, TransAM assay; settings: TNFα + LY 294002, control 0.174, TNFα only 0.881
Experimental: as §2
Passage 8 (human iliac artery endothelial cells (HIAECs) (obtained from ATCC; catalog no. CC-2545) were grown to confluence in 25 cm^2 flasks in EGM-2 medium. Eighteen hours prior to the experiment, the medium was replaced with EGM-2 medium containing 0.1% FCS plus heparin, GA1000 (gentamycin) and bovine pituitary extract (all from Cambrex) to place the cells in a resting state. To perform the experiment the medium was aspirated from the flasks, and the following additives were added to the flasks in fresh medium (total volume of 5 ml/flask): 15 μg/ml of the compound of formula II (Cpd II) or 10 μM LY 294002. The flasks were incubated 2 hours at 37° C., 5% CO2 After this incubation, VEGF or TNFα was added to give a final concentration 10 ng/ml, and the flasks were incubated for an additional 30 minutes. Then, the amount of NFκB was determined using a TransAM™ NFκB p65/NFκB p50 Transcription Factor Assay Kit and a Nuclear Extract Kit from Active Motif North America, Carlsbad, Calif., as described in Example 9.

Row | SMILES | Annexin staining of TCR-positive cells (TCR-positive cells) [%] | % Inhibition (IL-8) (IL-8 [1]; 4 hours) [%] | % Inhibition (IL-8) (IL-8 [1]; 24 hours) [%] | Mean IL-8 Concentration (IL-8 [1]; 24 hours, LPS alone 6653.20) [pg/mL] | Mean TNFα Concentration (TNFα) [pg/mL] | Mean OD 450 nm (NFκB) (NFκB [2]) | Mean IL-8 (IL-8 [3]) [pg/mL] | Mean OD 450 nm (c-Jun) (c-Jun) | Mean OD 450 nm (NFκB) (NFκB [4])
1 | C[C@@H]1C[C@H]2[C@@H]3CCC4=CC(=O)C=C[C@]4(C)[C@@]3(F)[C@@H](O)C[C@]2(C)[C@@]1(O)C(=O)CO [dexamethasone, reference compound] | 48 | 26 | 66 | 2300.00 ± 283.41 | 94.759 ± 8.755 | – | – | – | –
2 | O=c1cc(N2CCOCC2)oc2c(-c3ccccc3)cccc12 [LY 294002, reference compound] | – | – | – | – | – | 0.138 ± 0.008 | 9196.1 ± 150.97 | 0.340 ± 0.020 | 0.810 ± 0.007
